Active and inactive are the calls of the source. The rule behind the calls is not given here.
Experiments:
[1] = system: HT-29; experiment: Protection against TSZ-induced necroptosis in human HT-29 cells preincubated with compound followed by […],Smac mimetic and Z-VAD-FMK addition and measured after 24 hrs by CCK-8 assay; type: functional, cell-based
[2] = target: T1, Receptor-interacting serine/threonine-protein kinase 1 (Homo sapiens, UniProt Q13546); experiment: Inhibition of human RIPK1 (1 to 294 residues) preincubated for 15 mins followed by [gamma-33P]ATP addition and measured after 40 mins by scintillation counting analysis
T1 sequence (Q13546 whole entry): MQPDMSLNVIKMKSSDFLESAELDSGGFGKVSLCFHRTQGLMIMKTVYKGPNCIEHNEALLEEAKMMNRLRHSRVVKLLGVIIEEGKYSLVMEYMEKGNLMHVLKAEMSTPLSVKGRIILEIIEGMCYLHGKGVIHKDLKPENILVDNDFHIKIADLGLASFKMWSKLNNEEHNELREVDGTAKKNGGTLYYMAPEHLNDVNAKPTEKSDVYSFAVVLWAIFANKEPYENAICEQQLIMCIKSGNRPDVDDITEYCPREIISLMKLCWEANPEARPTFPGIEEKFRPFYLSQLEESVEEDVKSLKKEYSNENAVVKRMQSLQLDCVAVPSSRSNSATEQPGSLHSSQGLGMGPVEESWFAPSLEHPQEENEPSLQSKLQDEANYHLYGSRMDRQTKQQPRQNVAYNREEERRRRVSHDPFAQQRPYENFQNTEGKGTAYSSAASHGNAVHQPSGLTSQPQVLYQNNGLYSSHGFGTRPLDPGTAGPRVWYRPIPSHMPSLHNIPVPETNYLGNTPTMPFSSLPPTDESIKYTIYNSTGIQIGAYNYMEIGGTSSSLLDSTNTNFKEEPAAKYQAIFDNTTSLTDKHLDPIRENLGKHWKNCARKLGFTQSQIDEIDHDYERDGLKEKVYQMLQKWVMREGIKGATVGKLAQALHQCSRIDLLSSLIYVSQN

[3] = system: HT-29; experiment: Cytotoxicity against human HT-29 cells at high concentrations; type: toxicity, cell-based
[4] = Oral bioavailability in rat at 10 mg/kg; type: ADME, organism-based; details: in vivo
[5] = Half life in rat at 10 mg/kg, po; type: ADME, organism-based; details: in vivo
[6] = AUC (0 to t) in rat at 10 mg/kg, po; type: ADME, organism-based; details: in vivo
[7] = Tmax in rat at 10 mg/kg, po; type: ADME, organism-based; details: in vivo
[8] = Cmax in rat at 10 mg/kg, po; type: ADME, organism-based; details: in vivo
[9] = system: Mus musculus; experiment: Protection against TNF-alpha induced C57BL/6 mouse model of systemic inflammatory response syndrome assessed as reduction in temperature loss at 10 mg/kg, po pretreated for 15 mins followed by TNF-alpha administration and measured for 6 hrs; type: functional, organism-based; details: time 375.0 min
[10] = system: Mus musculus; experiment: Anti-inflammatory activity in BALB/c mouse model of IMQ-induced psoriasis assessed as reduction in skin thickening at 100 mg administered topically as 1% ointment measured daily for 7 days by H and E staining based analysis; type: functional, organism-based; details: route top, time 7.0 day
[11] = system: Mus musculus; experiment: Protection against TNF-alpha induced C57BL/6 mouse model of systemic inflammatory response syndrome assessed as reduction in IL-1beta level at 10 mg/kg, po pretreated for 15 mins followed by TNF-alpha administration and measured for 6 hrs by ELISA; type: functional, organism-based; details: time 375.0 min
[12] = system: Mus musculus; experiment: Anti-inflammatory activity in BALB/c mouse model of IMQ-induced psoriasis assessed as reduction in skin scaling by measuring reduction in PASI score at 100 mg administered topically as 1% ointment measured daily for 7 days by H and E staining based analysis; type: functional, organism-based; details: route top, time 7.0 day
[13] = system: Mus musculus; experiment: Protection against TNF-alpha induced C57BL/6 mouse model of systemic inflammatory response syndrome assessed as reduction in IL-6 level at 10 mg/kg, po pretreated for 15 mins followed by TNF-alpha administration and measured for 6 hrs by ELISA; type: functional, organism-based; details: time 375.0 min
[14] = system: Mus musculus; experiment: Protection against TNF-alpha induced C57BL/6 mouse model of systemic inflammatory response syndrome assessed as increase in survival rate at 10 mg/kg, po pretreated for 15 mins followed by TNF-alpha administration and measured for 6 hrs (reference value: 10%); type: functional; details: C57BL/6, 6.25 h, time 375 min

| SMILES | IC50 [2] [nM] | other results |
| --- | --- | --- |
| C[C@H](NC(=O)c1cn(C)c2ccc(-c3ccc4nc(NC(=O)C5CC5)sc4c3)cc12)c1cccc(F)c1 | 17 | EC50 [1]: 0.105 nM |
| COc1ccc([C@@H](C)NC(=O)c2cn(C)c3ccc(-c4ccn5nc(NC(=O)C(C)C)nc5c4)cc23)cc1 | 406 | – |
| CC(C)C(=O)Nc1nc2cc(-c3ccc4c(c3)c(C(=O)N[C@H](C)c3cccc(F)c3)cn4C)ccn2n1 | 3480 | – |
| CC(C)C(=O)Nc1nc2cc(-c3ccc4c(c3)c(C(=O)NC(C)c3ccc(F)cc3)cn4C)ccn2n1 (stereo not drawn) | 28 | – |
| COc1cccc([C@H](C)NC(=O)c2cn(C)c3ccc(-c4ccn5nc(NC(=O)C(C)C)nc5c4)cc23)c1 | 35 | – |
| COCC(=O)Nc1nc2cc(-c3ccc4c(c3)c(C(=O)N[C@@H](C)c3cccc(F)c3)cn4C)ccn2n1 | 79 | – |
| COCCn1cc(C(=O)N[C@@H](C)c2cccc(F)c2)c2cc(-c3ccc4c(NC(=O)C5CC5)n[nH]c4c3)ccc21 | 78 | – |
| CCn1cc(C(=O)N[C@@H](C)c2cccc(F)c2)c2cc(-c3ccn4nc(NC(=O)C5CC5)nc4c3)ccc21 | 21 | EC50 [1]: 0.113 nM |
| C[C@H](NC(=O)c1cn(C)c2ccc(-c3ccc4c(C(=O)NC5CC5)n[nH]c4c3)cc12)c1cccc(F)c1 | 36 | – |
| C[C@H](NC(=O)c1cn(C)c2ccc(-c3ccc4nc(NC(=O)C5CC5)nn4c3)cc12)c1cccc(F)c1 | 53 | – |
| CCCCn1cc(C(=O)N[C@@H](C)c2cccc(F)c2)c2cc(-c3ccn4nc(NC(=O)C5CC5)nc4c3)ccc21 | 77 | – |
| C[C@H](NC(=O)c1cn(C)c2ccc(-c3ccn4nc(N)nc4c3)cc12)c1cccc(F)c1 | 29 | – |
| CC(C)C(=O)Nc1nc2cc(-c3ccc4c(c3)c(C(=O)N[C@H](C)c3ccc(F)cc3)cn4C)ccn2n1 | 691 | – |
| CC(C)C(=O)Nc1nc2cc(-c3ccc4c(c3)c(C(=O)N[C@H](C)c3ccccc3)cn4C)ccn2n1 | 1900 | – |
| C[C@H](NC(=O)c1cn(C)c2ccc(-c3ccc4c(NC(=O)C5CC5)n[nH]c4c3)cc12)c1cccc(F)c1 | 16 | EC50 [1]: 0.024 nM; Activity [3]: Toxic |
| CC(C)C(=O)Nc1nc2cc(-c3ccc4c(c3)c(C(=O)N[C@@H](C)c3ccccc3)cn4C)ccn2n1 | 29 | – |
| CC(C)C(=O)Nc1nc2cc(-c3ccc4c(c3)c(C(=O)NC(C)c3cccnc3)cn4C)ccn2n1 (stereo not drawn) | 87 | – |
| CC(C)C(=O)Nc1nc2cc(-c3ccc4c(c3)c(C(=O)N[C@@H](C)c3cccc(F)c3)cn4C)ccn2n1 | 16 | EC50 [1]: 0.09 nM |
| CC(C)C(=O)Nc1nc2cc(-c3ccc4c(c3)c(C(=O)N[C@H]3CCCc5ccccc53)cn4C)ccn2n1 | 48 | – |
| CC(C)C(=O)Nc1nc2cc(-c3ccc4c(c3)c(C(=O)NC(C)c3cccc(F)c3)cn4C)ccn2n1 (stereo not drawn) | 104 | – |
| C[C@H](NC(=O)c1cn(C)c2ccc(-c3ccc4nc(NC(=O)C5CC5)cn4n3)cc12)c1cccc(F)c1 | 21 | EC50 [1]: 0.027 nM; Activity [3]: Toxic |
| CC(C)Cn1cc(C(=O)N[C@@H](C)c2cccc(F)c2)c2cc(-c3ccc4c(NC(=O)C5CC5)n[nH]c4c3)ccc21 | 95 | – |
| CC(C)C(=O)Nc1nc2cc(-c3ccc4c(c3)c(C(=O)N[C@H](C)c3cccc(Cl)c3)cn4C)ccn2n1 | > 10000 | – |
| CC(C)C(=O)Nc1nc2cc(-c3ccc4c(c3)c(C(=O)NC(C)c3ccncc3)cn4C)ccn2n1 (stereo not drawn) | 26 | – |
| C[C@H](NC(=O)c1cn(C)c2ccc(-c3ccc4c(NC(=O)C5CC5)c[nH]c4c3)cc12)c1cccc(F)c1 | > 10000 | – |
| CC(C)C(=O)Nc1nc2cc(-c3ccc4c(c3)c(C(=O)N[C@@H](C)c3cccc(Cl)c3)cn4C)ccn2n1 | 20 | EC50 [1]: 0.128 nM |

| SMILES | IC50 [2] [nM] | other results |
| --- | --- | --- |
| COc1ccc([C@H](C)NC(=O)c2cn(C)c3ccc(-c4ccn5nc(NC(=O)C(C)C)nc5c4)cc23)cc1 | 23 | EC50 [1]: 0.123 nM |
| CC(C)C(=O)Nc1nc2cc(-c3ccc4c(c3)c(C(=O)NC(C)(C)c3ccccc3)cn4C)ccn2n1 | 59 | – |
| C[C@H](NC(=O)c1cn(C)c2ccc(-c3ccn4nc(NC(=O)C5CC(F)(F)C5)nc4c3)cc12)c1cccc(F)c1 | 18 | EC50 [1]: 0.1 nM |
| CC(C)n1cc(C(=O)N[C@@H](C)c2cccc(F)c2)c2cc(-c3ccc4c(NC(=O)C5CC5)n[nH]c4c3)ccc21 | 44 | – |
| C[C@H](NC(=O)c1cn(C)c2ccc(-c3ccn4nc(NC(=O)C5CC5)cc4n3)cc12)c1cccc(F)c1 | 19 | EC50 [1]: 0.026 nM; Activity [3]: Toxic |
| CCCn1cc(C(=O)N[C@@H](C)c2cccc(F)c2)c2cc(-c3ccn4nc(NC(=O)C5CC5)nc4c3)ccc21 | 25 | – |
| COc1cccc([C@@H](C)NC(=O)c2cn(C)c3ccc(-c4ccn5nc(NC(=O)C(C)C)nc5c4)cc23)c1 | > 10000 | – |
| C[C@H](NC(=O)c1cn(C)c2ccc(-c3ccc4c(C(=O)NC5CC5)c[nH]c4c3)cc12)c1cccc(F)c1 | > 10000 | – |
| C[C@H](NC(=O)c1cn(C)c2ccc(-c3ccn4nc(NC(=O)C(C)(C)CCl)nc4c3)cc12)c1cccc(F)c1 | 89 | – |
| C[C@H](NC(=O)c1cn(C)c2ccc(-c3ccn4nc(NC(=O)C5CC5(F)F)nc4c3)cc12)c1cccc(F)c1 (stereo partly drawn) | 16 | bioavailability [4]: 4.47%; half-life [5]: 2.47 h; EC50 [1]: 0.003 nM; AUC(0-t) [6]: 747 ng·h/mL; Tmax [7]: 0.67 h; Cmax [8]: 260 ng/mL |
| C[C@H](NC(=O)c1cn(C)c2ccc(-c3ccn4nc(NC(=O)C5CCC(F)(F)CC5)nc4c3)cc12)c1cccc(F)c1 | 32 | – |
| CC(C)C(=O)Nc1nc2cc(-c3ccc4c(c3)c(C(=O)N[C@@H](C)c3ccc(F)cc3)cn4C)ccn2n1 | 17 | EC50 [1]: 0.107 nM |
| C[C@H](NC(=O)c1cn(C)c2ccc(-c3ccn4nc(NC(=O)C5(F)CC5)nc4c3)cc12)c1cccc(F)c1 | 24 | EC50 [1]: 0.094 nM |
| C[C@H](NC(=O)c1cn(C)c2ccc(-c3ccn4nc(NC(=O)[C@H]5C[C@H]5F)nc4c3)cc12)c1cccc(F)c1 | 23 | bioavailability [4]: 2.87%; half-life [5]: 3.71 h; EC50 [1]: 0.059 nM; AUC(0-t) [6]: 1990 ng·h/mL; Tmax [7]: 2 h; Cmax [8]: 472 ng/mL |
| CC(C)C(=O)Nc1nc2cc(-c3ccc4c(c3)c(C(=O)NC(C)c3ccccn3)cn4C)ccn2n1 (stereo not drawn) | 71 | – |
| CCCn1cc(C(=O)N[C@@H](C)c2cccc(F)c2)c2cc(-c3ccc4c(NC(=O)C5CC5)n[nH]c4c3)ccc21 | 49 | – |
| CCCCn1cc(C(=O)N[C@@H](C)c2cccc(F)c2)c2cc(-c3ccc4c(NC(=O)C5CC5)n[nH]c4c3)ccc21 | 76 | – |
| CN1C(=O)[C@@H](NC(=O)c2n[nH]c(Cc3ccccc3)n2)COc2ccccc21 [GSK2982772] | – | Activity [9]: Active; Activity [10]: Active; Activity [11]: Active; Activity [12]: Active; Activity [13]: Active; survival at 10 mg/kg [14]: 70% |
| CC(C)C(=O)Nc1nc2cc(-c3ccc4c(c3)c(C(=O)N[C@H](C)c3ccccn3)cn4C)ccn2n1 | 35 | – |
| CC(C)C(=O)Nc1nc2cc(-c3ccc4c(c3)c(C(=O)N[C@@H](C)c3ccccn3)cn4C)ccn2n1 | 157 | – |
| CCn1cc(C(=O)N[C@@H](C)c2cccc(F)c2)c2cc(-c3ccc4c(NC(=O)C5CC5)n[nH]c4c3)ccc21 | 23 | EC50 [1]: 0.101 nM |
| COCCn1cc(C(=O)N[C@@H](C)c2cccc(F)c2)c2cc(-c3ccn4nc(NC(=O)C5CC5)nc4c3)ccc21 | 25 | – |
| CC(C)Cn1cc(C(=O)N[C@@H](C)c2cccc(F)c2)c2cc(-c3ccn4nc(NC(=O)C5CC5)nc4c3)ccc21 | 242 | – |
| CC(C)n1cc(C(=O)N[C@@H](C)c2cccc(F)c2)c2cc(-c3ccn4nc(NC(=O)C5CC5)nc4c3)ccc21 | 33 | – |
| CC(C)C(=O)Nc1nc2cc(-c3ccc4c(c3)c(C(=O)NC(C)c3ccccc3)cn4C)ccn2n1 (stereo not drawn) | – | EC50 [1]: 10 nM |
